Drawing on patent US10150728B2, “Alkylene derivatives” (Shionogi & Co., Ltd., priority 2013, dated 2018), this text covers IC50 for 56 molecules.

recombinant human ACC2, sequence (O00763 27-2458): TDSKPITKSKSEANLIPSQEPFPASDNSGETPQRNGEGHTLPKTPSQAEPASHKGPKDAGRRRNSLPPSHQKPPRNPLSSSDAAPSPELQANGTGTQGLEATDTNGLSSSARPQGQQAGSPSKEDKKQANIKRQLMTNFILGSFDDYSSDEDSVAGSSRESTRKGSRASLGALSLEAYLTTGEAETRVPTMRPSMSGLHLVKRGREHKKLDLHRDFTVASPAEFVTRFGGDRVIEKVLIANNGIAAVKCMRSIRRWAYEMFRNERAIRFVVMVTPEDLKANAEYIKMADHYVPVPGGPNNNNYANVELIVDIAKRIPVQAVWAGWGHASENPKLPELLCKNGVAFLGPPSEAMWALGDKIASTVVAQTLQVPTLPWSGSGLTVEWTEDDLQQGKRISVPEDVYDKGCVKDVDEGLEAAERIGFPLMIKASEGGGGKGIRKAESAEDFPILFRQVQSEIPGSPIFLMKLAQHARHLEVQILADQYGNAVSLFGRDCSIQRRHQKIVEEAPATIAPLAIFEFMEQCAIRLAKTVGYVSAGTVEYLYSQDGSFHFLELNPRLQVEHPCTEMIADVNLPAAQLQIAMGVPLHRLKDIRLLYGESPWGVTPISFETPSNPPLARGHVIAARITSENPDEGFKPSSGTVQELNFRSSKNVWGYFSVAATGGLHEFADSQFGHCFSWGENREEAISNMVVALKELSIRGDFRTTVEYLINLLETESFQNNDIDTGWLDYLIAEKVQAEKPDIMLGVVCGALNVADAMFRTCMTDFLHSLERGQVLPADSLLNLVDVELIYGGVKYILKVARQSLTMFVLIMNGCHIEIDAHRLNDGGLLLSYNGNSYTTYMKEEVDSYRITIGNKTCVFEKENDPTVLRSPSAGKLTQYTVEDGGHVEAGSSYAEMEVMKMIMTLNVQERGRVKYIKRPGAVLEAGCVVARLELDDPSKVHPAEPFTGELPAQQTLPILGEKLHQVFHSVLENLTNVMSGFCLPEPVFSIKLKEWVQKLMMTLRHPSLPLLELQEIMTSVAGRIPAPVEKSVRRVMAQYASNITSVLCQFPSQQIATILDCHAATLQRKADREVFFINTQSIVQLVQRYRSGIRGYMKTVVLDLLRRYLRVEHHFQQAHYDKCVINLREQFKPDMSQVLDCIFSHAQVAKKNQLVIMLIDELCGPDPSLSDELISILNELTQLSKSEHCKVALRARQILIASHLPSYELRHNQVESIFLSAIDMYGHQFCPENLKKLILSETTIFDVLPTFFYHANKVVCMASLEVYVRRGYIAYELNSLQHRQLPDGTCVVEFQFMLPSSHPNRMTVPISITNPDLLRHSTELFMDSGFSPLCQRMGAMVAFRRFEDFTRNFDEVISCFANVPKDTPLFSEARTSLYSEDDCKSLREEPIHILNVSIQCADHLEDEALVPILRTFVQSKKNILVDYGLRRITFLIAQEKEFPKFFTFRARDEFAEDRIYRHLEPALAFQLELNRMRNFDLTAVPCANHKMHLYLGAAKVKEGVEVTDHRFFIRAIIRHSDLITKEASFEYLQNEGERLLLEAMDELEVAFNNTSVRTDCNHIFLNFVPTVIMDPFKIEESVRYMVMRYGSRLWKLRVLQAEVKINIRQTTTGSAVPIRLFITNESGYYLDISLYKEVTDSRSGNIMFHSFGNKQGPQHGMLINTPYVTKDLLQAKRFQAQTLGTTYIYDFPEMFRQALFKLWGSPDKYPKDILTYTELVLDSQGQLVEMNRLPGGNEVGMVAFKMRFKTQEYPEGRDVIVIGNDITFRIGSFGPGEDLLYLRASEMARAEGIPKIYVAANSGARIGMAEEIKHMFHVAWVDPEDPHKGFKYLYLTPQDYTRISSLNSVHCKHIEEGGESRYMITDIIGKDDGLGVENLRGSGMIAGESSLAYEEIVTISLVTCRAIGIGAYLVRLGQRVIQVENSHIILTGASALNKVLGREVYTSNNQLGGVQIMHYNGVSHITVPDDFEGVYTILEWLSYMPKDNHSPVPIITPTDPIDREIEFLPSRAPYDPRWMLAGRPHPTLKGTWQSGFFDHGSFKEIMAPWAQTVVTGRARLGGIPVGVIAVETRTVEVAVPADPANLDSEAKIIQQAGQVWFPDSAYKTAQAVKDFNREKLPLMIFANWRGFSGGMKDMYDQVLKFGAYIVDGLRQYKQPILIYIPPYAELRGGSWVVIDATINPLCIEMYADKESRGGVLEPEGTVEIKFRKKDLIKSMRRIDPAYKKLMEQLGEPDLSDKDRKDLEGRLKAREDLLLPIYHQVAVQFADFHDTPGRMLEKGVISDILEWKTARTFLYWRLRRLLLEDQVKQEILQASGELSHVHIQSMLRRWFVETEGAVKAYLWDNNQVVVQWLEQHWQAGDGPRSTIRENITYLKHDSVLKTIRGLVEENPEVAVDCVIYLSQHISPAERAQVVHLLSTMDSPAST

This assay concerns the target recombinant human ACC2 (Homo sapiens (Human), UniProt O00763). As to the kind of experiment: Measurement of inhibitory activity on human ACC2 (MALDI-TOF MS, acetyl CoA to malonyl CoA conversion). The format is biochemical. As to conditions: Tables 155-159. The text has this:
Preparation 1: Preparation of Recombinant Human ACC2
After a cDNA encoding human ACC2 (27 amino acid residue to 2458 amino acid residues from the N-terminus) was cloned from human kidney cDNA library (Clontech), human ACC2 gene containing His-tag sequence at 5′ terminus was inserted into pFastBac1 (Invitrogen). Recombinant baculovirus was generated using Bac-to-Bac baculovirus expression system (Invitrogen) according to the manufacturer's protocol. To express human ACC2, Sf-9 cells were infected with recombinant baculovirus. After infected cells were disrupted, the filtrated lysate was subjected to Ni-affinity chromatography and anion-exchange chromatography. The fractions containing human ACC2 protein were pooled as recombinant human ACC2 solution.
The Measurement of Inhibitory Activity on Human ACC1 and the ACC2
Recombinant human ACC1 and recombinant human ACC2, which were prepared by the method mentioned above, were preincubated with assay buffer solution (50 mM HEPES-KOH (pH 7.4), 10 mM magnesium chloride, 6-10 mM potassium citrate, 4 mM reduced form of glutathione, 1.5 mg/ml bovine serum albumin) for one hour. Then, 0.2 μL of each this invention compound solution (in DMSO) were dispensed to 384-well microplate, 5 μL of the preincubated enzyme solution and 5 μL of substrate solution (50 mM HEPES-KOH (pH 7.4), 1 mM ATP, 0.8 mM acetyl CoA and 25-50 mM potassium bicarbonate) were added to microplate. After centrifugation and shaking, the reaction mixtures were incubated in a humidified box at room temperature for 1 to 3 hours. After the incubation, the enzyme reactions were stopped by the addition of EDTA. Then, after the samples were cocrystallized with CHCA (α-cyano-4-hydroxy cinnamic acid) matrices on MALDI target plate, by using the matrix assist laser […] time-of-flight mass spectrometer (MALDI-TOF MS), samples were measured in reflector negative mode. Deprotonated ions of acetyl CoA (AcCoA) of substrate and malonyl CoA (MalCoA) of the reaction product were detected, then, the conversion rates of acetyl CoA to malonyl CoA was calculated by the intensity of [MalCoA-H]−/(Intensity of [MalCoA-H]−+Intensity of [AcCoA-H]−) using each signal strength. […] In addition, potassium citrate concentrations in assay buffer solution, potassium hydrogen carbonate concentrations in substrate solution and incubation time were adjusted by each lot of enzyme.
By IC50 is commonly meant the concentration that gives 50% inhibition. Regarding `CC(=O)N[C@@H](C)CO[C@H]1C[C@H](COc2ccc3nc(OC[C@@H](C)F)sc3c2)C1` [Compound I-140], the concentration for half-maximal inhibition (IC50) turned out to be 144 nM.

In the case of `CC(=O)N[C@@H](C)CO[C@H]1C[C@H](COc2c(Cl)cc3nc(C(C)C)sc3c2Cl)C1` [Compound I-141], the 50% inhibitory concentration (IC50) was 80 nM.

Turning to `C[C@@H](CO[C@H]1CC[C@H](Oc2ccc3nc(C(C)(F)F)sc3c2F)CC1)NS(C)(=O)=O` [Compound I-142], the IC50 came to 181 nM.

On to `C[C@@H](CO[C@H]1CC[C@H](Oc2ccc3nc(C(C)(F)F)sc3c2F)CC1)NC(=O)CO` [Compound I-143], for which the IC50 was 120 nM.

As for `CC(=O)N[C@@H](C)CO[C@H]1C[C@](F)(COc2ccc3nc(C(C)C)sc3n2)C1` [Compound I-144], the IC50 came out at 127 nM.

With `CCC(O)(CC)c1nc2ccc(O[C@H]3CC[C@H](OC[C@H](C)NC(C)=O)CC3)c(F)c2s1` [Compound I-145], the IC50 was determined as 190 nM.

As to `CC(=O)N[C@@H](C)CO[C@H]1CC[C@H](Oc2ccc3nc(C4(O)CCCC4)sc3c2F)CC1` [Compound I-146], the IC50 came to 44 nM.

Take `CC(=O)N[C@@H](C)CO[C@H]1C[C@H](COc2ccc3nc(C(C)(F)F)sc3n2)C1` [Compound I-147]: the IC50 stood at 12 nM.

For `CC(=O)N[C@@H](C)CO[C@H]1C[C@H](COc2ccc3nc(C(C)(C)O)sc3c2)C1` [Compound I-148], the 50% inhibitory concentration (IC50) was 404 nM.

For the molecule `CC(=O)N[C@@H](C)CO[C@H]1CC[C@H](Oc2ccc3nc(OCC(C)(C)C#N)sc3c2F)CC1` [Compound I-149], the IC50 was found to be 63 nM.

Regarding `CC(=O)N[C@@H](C)CO[C@H]1CC[C@H](Oc2ccc3nc(OCC4(C#N)CC4)sc3c2F)CC1` [Compound I-150], the half-inhibitory concentration (IC50) came out at 36 nM.

As to `CC(=O)N[C@@H](C)CO[C@H]1C[C@H](COc2ccc3nc(OCC(F)F)sc3c2F)C1` [Compound I-151], the half-inhibitory concentration (IC50) stood at 75 nM.

Turning to `CC(=O)N[C@@H](C)CO[C@H]1C[C@H](COc2ccc3nc(OCC(F)(F)F)sc3c2F)C1` [Compound I-152], the IC50 amounted to 64 nM.

With `CC(=O)N[C@@H](C)CO[C@H]1C[C@H](COc2ccc3nc(OC(C)C)sc3c2F)C1` [Compound I-153], the concentration for half-maximal inhibition (IC50) came out at 43 nM.

For `CC(=O)N[C@@H](C)CO[C@H]1C[C@H](COc2ccc3nc(OC4CC4)sc3c2F)C1` [Compound I-154], the IC50 was found to be 17 nM.

Regarding `CC(=O)N[C@@H](C)CO[C@H]1C[C@H](COc2ccc3nc(OC4CCC4)sc3c2F)C1` [Compound I-155], the half-maximal inhibitory concentration (IC50) was 25 nM.

Take `CC(=O)N[C@@H](C)CO[C@H]1C[C@H](COc2ccc3nc(Oc4ccc(F)cc4)sc3c2F)C1` [Compound I-156]: the IC50 was 12 nM.

On to `CCOc1nc2ccc(OC[C@H]3C[C@H](OC[C@H](C)NC(C)=O)C3)nc2s1` [Compound I-157], for which the IC50 was determined as 3 nM.

As to `C[C@@H](CO[C@H]1CC[C@H](Oc2ccc3nc(C(C)(F)F)sc3c2F)CC1)NC(N)=O` [Compound I-158], the half-maximal inhibitory concentration (IC50) amounted to 48 nM.

Turning to `CC(=O)N[C@@H](C)CO[C@H]1C[C@H](COc2cc3sc(C(C)(C)O)nc3cc2F)C1` [Compound I-159], the IC50 was determined as 641 nM.

Take `CC(=O)N[C@@H](C)CO[C@H]1C[C@](F)(COc2ccc3nc(C(C)(C)O)sc3c2F)C1` [Compound I-160]: the 50% inhibitory concentration (IC50) worked out at 809 nM.

Regarding `CC(=O)N[C@@H](C)CO[C@H]1CC[C@H](Oc2ccc3nc(O[C@H]4C[C@H](C#N)C4)sc3c2F)CC1` [Compound I-161], the IC50 came out at 146 nM.

On to `CC(=O)N[C@@H](C)CO[C@H]1CC[C@H](Oc2ccc3nc(O[C@H]4C[C@@H](C#N)C4)sc3c2F)CC1` [Compound I-162], for which the IC50 amounted to 74 nM.

As for `CCOc1nc2ccc(OC[C@]3(F)C[C@@H](OC[C@H](C)NC(C)=O)C3)nc2s1` [Compound I-163], the IC50 is 39 nM.

On to `CCOc1nc2cc(F)c(OC[C@]3(F)C[C@@H](OC[C@H](C)NC(C)=O)C3)nc2s1` [Compound I-164], for which the half-maximal inhibitory concentration (IC50) worked out at 39 nM.

In the case of `CCOc1nc2cc(F)c(OC[C@H]3C[C@H](OC[C@H](C)NC(C)=O)C3)nc2s1` [Compound I-165], the 50% inhibitory concentration (IC50) was determined as 7 nM.

On to `C[C@@H](CO[C@H]1CC[C@H](Oc2ccc3nc(C(C)(F)F)sc3c2F)CC1)NC(=O)C1COC1` [Compound I-166], for which the IC50 was 30 nM.

`CC(=O)N[C@@H](C)CO[C@H]1CC[C@H](Oc2ccc3nc(N4CC(C)(C)C4)sc3c2F)CC1` [Compound I-167]: the IC50 stood at 59 nM.

As for `CC(=O)N[C@@H](C)CO[C@H]1CC[C@H](Oc2cc3sc(OC(C)CF)nc3cc2Cl)CC1` (some centres unmarked) [Compound I-168], the IC50 stood at 95 nM.

For the molecule `CC(=O)N[C@@H](C)CO[C@H]1C[C@H](COc2ccc3nc(OCC(F)F)sc3n2)C1` [Compound I-169], the IC50 was 10 nM.

As to `CC(=O)N[C@@H](C)CO[C@H]1C[C@H](COc2ccc3nc(OCC(F)(F)F)sc3n2)C1` [Compound I-170], the half-maximal inhibitory concentration (IC50) is 6 nM.

`CC(=O)N[C@@H](C)CO[C@H]1C[C@H](COc2ccc3nc(C(C)(C)O)sc3n2)C1` [Compound I-171]: the 50% inhibitory concentration (IC50) was 152 nM.

Turning to `CC(=O)N[C@@H](C)CO[C@H]1C[C@H](COc2ccc3nc(OC4CC4)sc3n2)C1` [Compound I-172], the IC50 was 13 nM.

For `CC(=O)N[C@@H](C)CO[C@H]1C[C@H](COc2ccc3nc(OC(C)C)sc3n2)C1` [Compound I-173], the concentration for half-maximal inhibition (IC50) is 5 nM.

As for `CC(=O)N[C@@H](C)CO[C@H]1C[C@](F)(COc2cc3sc(C(C)C)nc3cn2)C1` [Compound I-174], the IC50 came to 931 nM.

`CC(=O)N[C@@H](C)CO[C@H]1CC[C@H](Oc2ccc3nc(N4CC(F)(F)C4)sc3c2F)CC1` [Compound I-175]: the IC50 amounted to 11 nM.

Regarding `CC(=O)N[C@@H](C)CO[C@H]1CC[C@H](Oc2ccc3nc(N4CCOCC4)sc3c2F)CC1` [Compound I-176], the concentration for half-maximal inhibition (IC50) was 42 nM.

Regarding `CCOc1nc2ccc(O[C@H]3CC[C@H](OC[C@H](C)NC(C)=O)CC3)cc2s1` [Compound I-177], the half-maximal inhibitory concentration (IC50) was determined as 6 nM.

Regarding `CCOc1nc2ccc(O[C@H]3CC[C@H](OC[C@H](C)NC(C)=O)CC3)nc2s1` [Compound I-178], the 50% inhibitory concentration (IC50) was found to be 3 nM.

In the case of `CCOc1nc2cnc(O[C@H]3CC[C@H](OC[C@H](C)NC(C)=O)CC3)cc2s1` [Compound I-179], the IC50 turned out to be 28 nM.

Consider `CC(=O)N[C@@H](C)CO[C@H]1C[C@H](COc2nc3sc(OCC(F)F)nc3cc2F)C1` [Compound I-180], for which the IC50 was determined as 21 nM.

On to `CC(=O)N[C@@H](C)CO[C@H]1C[C@H](COc2nc3sc(OCC(F)(F)F)nc3cc2F)C1` [Compound I-181], for which the 50% inhibitory concentration (IC50) was found to be 14 nM.

As for `CC(=O)N[C@@H](C)CO[C@H]1C[C@H](COc2nc3sc(OC(C)C)nc3cc2F)C1` [Compound I-182], the IC50 was found to be 12 nM.

With `CC(=O)N[C@@H](C)CO[C@H]1CC[C@H](Oc2cc3sc(OCC4CC4)nc3cn2)CC1` [Compound I-183], the IC50 was determined as 14 nM.

Regarding `CC(=O)N[C@@H](C)CO[C@H]1CC[C@H](Oc2cc3sc(OCC(F)(F)F)nc3cn2)CC1` [Compound I-184], the IC50 is 54 nM.

Take `CC(=O)N[C@@H](C)CO[C@H]1CC[C@H](Oc2cc3sc(OCC(F)F)nc3cn2)CC1` [Compound I-185]: the half-maximal inhibitory concentration (IC50) turned out to be 44 nM.

As for `CCOc1nc2cc(F)c(O[C@H]3CC[C@H](OC[C@H](C)NC(C)=O)CC3)nc2s1` [Compound I-186], the IC50 came out at 5 nM.

In the case of `CC(=O)N[C@@H](C)CO[C@H]1CC[C@H](Oc2ccc3nc(N4CC(C)(O)C4)sc3c2F)CC1` [Compound I-187], the half-maximal inhibitory concentration (IC50) is 234 nM.

As for `CC(=O)N[C@@H](C)CO[C@H]1CC[C@H](Oc2ccc3nc(N4CCC(F)(F)CC4)sc3c2F)CC1` [Compound I-188], the half-maximal inhibitory concentration (IC50) was 41 nM.

For the molecule `CC(=O)N[C@@H](C)CO[C@H]1CC[C@H](Oc2ccc3nc(N4CCC(F)(F)C4)sc3c2F)CC1` [Compound I-189], the concentration for half-maximal inhibition (IC50) is 27 nM.

`CCN(C)c1nc2ccc(O[C@H]3CC[C@H](OC[C@H](C)NC(C)=O)CC3)c(F)c2s1` [Compound I-190]: the IC50 is 73 nM.

For the molecule `CC(=O)N[C@@H](C)CO[C@H]1C[C@H](COc2ccc3nc(OC[C@H](C)F)sc3n2)C1` [Compound I-191], the IC50 came out at 12 nM.

Turning to `CC(=O)N[C@@H](C)CO[C@H]1C[C@H](COc2ccc3nc(OCC4(C#N)CC4)sc3n2)C1` [Compound I-192], the IC50 was found to be 61 nM.

For `CC(=O)N[C@@H](C)CO[C@H]1C[C@H](COc2ccc3nc(OCC(C)(F)F)sc3n2)C1` [Compound I-193], the IC50 was determined as 12 nM.

Consider `CC(=O)N[C@@H](C)CO[C@H]1C[C@H](COc2ccc3nc(OC(C)CF)sc3n2)C1` (some centres unmarked) [Compound I-194], for which the 50% inhibitory concentration (IC50) was 12 nM.

Turning to `CC(=O)N[C@@H](C)CO[C@H]1C[C@H](COc2ccc3nc(OCC4(F)COC4)sc3n2)C1` [Compound I-195], the half-maximal inhibitory concentration (IC50) turned out to be 28 nM.
